{
  "source": "patent US10434181B2",
  "about": "“Oligomer-containing benzamide-based compounds” (Nektar Therapeutics, priority 2012, dated 2019)",
  "key": {"[1]": {"tested_on": "Sprague-Dawley rat hepatocytes", "assay": "MetID determination in rat hepatocytes", "type": "in vitro ADME", "method": "(§1) Cryopreserved human and Sprague-Dawley rat hepatocytes were thawed in a 37° C. water bath. […] Samples were obtained from separate plates for each time point during the incubation. At each sampling time, the plates were removed from the incubator, quenched by adding 100 μL cold acetonitrile, and placed in an ice bath until centrifugation at 4,000 rpm for 30 minutes at 4° C. Supernatants were stored at or below −70° C. until LC-MS/MS analysis could be conducted. The liquid chromatography system used was Agilent 1100 Autosampler, Binary Pump, DAD and Column Enclosure. Tandem mass spectrometry was conducted using a Thermo DECA XP MAX Ion Trap Mass Spectrometer. The ion source was Electrospray (+) and the LC column used was a Varian, Polaris 5 C18-A (250×2.1 mm, 5 micron) column.\n(§2) Metabolic pathways of metoclopramide and conjugates were determined in rat and human hepatocytes. N-dealkylation was the major metabolic pathway for metoclopramide in rats, and metabolism in human hepatocytes was minimal. […] FIG. 2 and FIG. 3 show the metabolic pathway of for mPEG1-N-metoclopramide and mPEG4-N-metoclopramide, respectively. […] In this figure, different metabolites for each conjugate are denoted with the “M” and correspond to the designation provided in the figure for a given conjugate. For example, metabolite M1 for mPEG1-N-metoclopramide in Table 6 corresponds to M1 in FIG. 2, metabolite M2 for mPEG4-N-metoclopramide in Table 6 corresponds to M2 in FIG. 3 and metabolite M3 mPEG8-N-metoclopramide in Table 6 corresponds to M3 in FIG. 4."}, "human hepatocytes": {"tested_on": "human hepatocytes", "assay": "MetID determination in human hepatocytes", "type": "in vitro ADME", "method": "as §1, §2"}, "[2]": {"details": "incubation of 10 μM mPEG4-N-metoclopramide, parent and its metabolites M (FIG. 3)"}, "[3]": {"details": "incubation of 10 μM mPEG8-N-metoclopramide, parent and its metabolites M (FIG. 4)"}},
  "data": [
    {"smiles": "CCN(CCO)CCNC(=O)c1cc(Cl)c(N)cc1OC", "note": "[M6]", "values": [
      {"measurement": "% of Total Metabolism, Rat Hep 1 hr", "setting": "[1]; [2]", "result": "trace"},
      {"measurement": "% of Total Metabolism, Rat Hep 4 hr", "setting": "[1]; [2]", "result": "trace"},
      {"measurement": "% of Total Metabolism, Rat Hep 1 hr", "setting": "[1]; [3]", "result": 1, "unit": "%"},
      {"measurement": "% of Total Metabolism, Rat Hep 4 hr", "setting": "[1]; [3]", "result": 2.2, "unit": "%"}
    ]},
    {"smiles": "CCN(CCNC(=O)c1cc(Cl)c(N)cc1OC)CCOCCO", "note": "[M7]", "values": [
      {"measurement": "% of Total Metabolism, Human Hep 1 hr", "setting": "human hepatocytes; [3]", "result": "trace"},
      {"measurement": "% of Total Metabolism, Human Hep 4 hr", "setting": "human hepatocytes; [3]", "result": "trace"},
      {"measurement": "% of Total Metabolism, Rat Hep 1 hr", "setting": "[1]; [2]", "result": 1.7, "unit": "%"},
      {"measurement": "% of Total Metabolism, Rat Hep 4 hr", "setting": "[1]; [2]", "result": 1.2, "unit": "%"},
      {"measurement": "% of Total Metabolism, Rat Hep 1 hr", "setting": "[1]; [3]", "result": 1.2, "unit": "%"},
      {"measurement": "% of Total Metabolism, Rat Hep 4 hr", "setting": "[1]; [3]", "result": 2.2, "unit": "%"}
    ]},
    {"smiles": "CCN(CCNC(=O)c1cc(Cl)c(N)cc1OC)CCOCCOCCO", "note": "[M8]", "values": [
      {"measurement": "% of Total Metabolism, Human Hep 1 hr", "setting": "human hepatocytes; [3]", "result": "trace"},
      {"measurement": "% of Total Metabolism, Human Hep 4 hr", "setting": "human hepatocytes; [3]", "result": "trace"},
      {"measurement": "% of Total Metabolism, Rat Hep 1 hr", "setting": "[1]; [2]", "result": "trace"},
      {"measurement": "% of Total Metabolism, Rat Hep 4 hr", "setting": "[1]; [2]", "result": 1.5, "unit": "%"},
      {"measurement": "% of Total Metabolism, Rat Hep 1 hr", "setting": "[1]; [3]", "result": 1.3, "unit": "%"},
      {"measurement": "% of Total Metabolism, Rat Hep 4 hr", "setting": "[1]; [3]", "result": 2.5, "unit": "%"}
    ]},
    {"smiles": "CCN(CCNC(=O)c1cc(Cl)c(N)cc1OC)CCOCCOCCOCCO", "note": "[M9]", "values": [
      {"measurement": "% of Total Metabolism, Human Hep 4 hr", "setting": "human hepatocytes; [2]", "result": 1.9, "unit": "%"},
      {"measurement": "% of Total Metabolism, Human Hep 1 hr", "setting": "human hepatocytes; [3]", "result": "trace"},
      {"measurement": "% of Total Metabolism, Human Hep 4 hr", "setting": "human hepatocytes; [3]", "result": "trace"},
      {"measurement": "% of Total Metabolism, Rat Hep 1 hr", "setting": "[1]; [2]", "result": 8.8, "unit": "%"},
      {"measurement": "% of Total Metabolism, Rat Hep 4 hr", "setting": "[1]; [2]", "result": 24.8, "unit": "%"},
      {"measurement": "% of Total Metabolism, Rat Hep 1 hr", "setting": "[1]; [3]", "result": "Trace"},
      {"measurement": "% of Total Metabolism, Rat Hep 4 hr", "setting": "[1]; [3]", "result": 1.6, "unit": "%"}
    ]},
    {"smiles": "CCN(CCO)CCNC(=O)c1cc(Cl)c(N)cc1OC", "note": "[M10]", "values": [
      {"measurement": "% of Total Metabolism, Rat Hep 4 hr", "setting": "[1]; [3]", "result": "trace"}
    ]},
    {"smiles": "CCN(CCNC(=O)c1cc(Cl)c(N)cc1OC)CCOCCO", "note": "[M11]", "values": [
      {"measurement": "% of Total Metabolism, Rat Hep 1 hr", "setting": "[1]; [3]", "result": "Trace"},
      {"measurement": "% of Total Metabolism, Rat Hep 4 hr", "setting": "[1]; [3]", "result": 3.5, "unit": "%"}
    ]},
    {"smiles": "CCN(CCNC(=O)c1cc(Cl)c(N)cc1OC)CCOCCOCCO", "note": "[M12]", "values": [
      {"measurement": "% of Total Metabolism, Human Hep 4 hr", "setting": "human hepatocytes; [3]", "result": "trace"},
      {"measurement": "% of Total Metabolism, Rat Hep 1 hr", "setting": "[1]; [3]", "result": "Trace"},
      {"measurement": "% of Total Metabolism, Rat Hep 4 hr", "setting": "[1]; [3]", "result": 0.7, "unit": "%"}
    ]},
    {"smiles": "CCN(CCNC(=O)c1cc(Cl)c(N)cc1OC)CCOCCOCCOCCO", "note": "[M13]", "values": [
      {"measurement": "% of Total Metabolism, Human Hep 4 hr", "setting": "human hepatocytes; [3]", "result": 2.7, "unit": "%"},
      {"measurement": "% of Total Metabolism, Rat Hep 1 hr", "setting": "[1]; [3]", "result": 3.0, "unit": "%"},
      {"measurement": "% of Total Metabolism, Rat Hep 4 hr", "setting": "[1]; [3]", "result": 12.6, "unit": "%"}
    ]},
    {"smiles": "CCN(CCNC(=O)c1cc(Cl)c(N)cc1OC)CCOCCOCCOCCOCCO", "note": "[M14]", "values": [
      {"measurement": "% of Total Metabolism, Human Hep 1 hr", "setting": "human hepatocytes; [3]", "result": "trace"},
      {"measurement": "% of Total Metabolism, Human Hep 4 hr", "setting": "human hepatocytes; [3]", "result": "trace"},
      {"measurement": "% of Total Metabolism, Rat Hep 1 hr", "setting": "[1]; [3]", "result": "Trace"},
      {"measurement": "% of Total Metabolism, Rat Hep 4 hr", "setting": "[1]; [3]", "result": 2, "unit": "%"}
    ]}
  ]
}
